Data published in ChEMBL document CHEMBL1126187, “New bronchodilators. 3. Imidazo[4,5-c][1,8]naphthyridin-4(5H)-ones” (J Med Chem, 1992).

Assays:
[1] = organism: Cavia porcellus; test: Schultz-Dale (SD) reaction in tracheal strip isolated from passively sensitized guinea pigs; format: functional
[2] = system: Cavia porcellus; test: Mean collapse time in antigen induced bronchospasm in passively sensitized guinea pigs at 10 mg/kg peroral dose; format: functional; settings: route oral
[3] = molecular target: Phosphodiesterase 4 (Canis familiaris); test: Inhibition of Canine Tracheal Smooth Muscle PDE 4
[4] = system: Mus musculus; test: Acute lethal toxicity in mice on peroral administration.; format: organism-based; settings: in vivo, po
[5] = system: Cavia porcellus; test: Mean collapse time in antigen induced bronchospasm in passively sensitized guinea pigs at 1 mg/kg peroral dose; format: functional; settings: route oral
[6] = organism: Cavia porcellus; test: Effect on LTD4 induced contraction of guinea pig tracheal strips; format: functional; settings: Trachea
[7] = organism: Cavia porcellus; test: Effect on histamine induced contraction of guinea pig tracheal strips; format: functional; settings: Trachea
[8] = system: Cavia porcellus; test: Mean collapse time in antigen induced bronchospasm in passively sensitized guinea pigs at 0.1 mg/kg peroral dose; format: functional; settings: route oral
[9] = system: Cavia porcellus; test: Mean collapse time in antigen induced bronchospasm in passively sensitized guinea pigs at 5 mg/kg peroral dose; format: functional; settings: route oral
[10] = system: Cavia porcellus; test: Mean collapse time in antigen induced bronchospasm in passively sensitized guinea pigs at 50 mg/kg peroral dose; format: functional; settings: route oral
[11] = system: Cavia porcellus; test: Mean collapse time in antigen induced bronchospasm in passively sensitized guinea pigs at 0.50 mg/kg peroral dose; format: functional; settings: dose 0.5 mg/kg; route oral
[12] = molecular target: Phosphodiesterase 4 (Canis familiaris); test: Inhibition of Canine Tracheal Smooth Muscle PDE 4; remark: listed apart in the source
[13] = organism: Cavia porcellus; test: Effect on carbachol induced contraction of guinea pig tracheal strips; format: functional; settings: Trachea
[14] = system: Cavia porcellus; test: Mean collapse time in antigen induced bronchospasm in passively sensitized guinea pigs at 25 mg/kg peroral dose; format: functional; settings: route oral

Cn1cnc2c(=O)n(-c3ccccc3)c3ncccc3c21
IC50 [1]: > 30 µM

Oc1c2ncnc-2c2ccccc2n1-c1ccccc1
IC50 [1]: > 30 µM

CCCCn1c(=O)c2c(ncn2C)c2cccnc21
MCT [2]: 215 s
IC50 [1]: 3.57 µM
IC50 [3]: 3.6 µM
MLD [4]: 200 mg/kg

COc1cccc(-n2c(O)c3ncnc-3c3cccnc32)c1
IC50 [1]: > 30 µM

Oc1c2ncnc-2c2cccnc2n1-c1cccc(Cl)c1
IC50 [1]: > 30 µM

CCOC(=O)c1ccc(-n2c(O)c3ncnc-3c3cccnc32)cc1
IC50 [1]: > 30 µM

Oc1c2nnnc-2c2cccnc2n1-c1ccccc1
IC50 [1]: > 30 µM

Oc1c2nc(-c3ccccc3)nc-2c2cccnc2n1-c1ccccc1
IC50 [1]: > 30 µM

CCN(CC)CCCn1cnc2c3cccnc3n(-c3ccccc3)c(=O)c21
IC50 [1]: > 30 µM

O=c1c2c(ncn2CCCN2CCOCC2)c2cccnc2n1-c1ccccc1
IC50 [1]: > 30 µM

CCn1cnc2c3cccnc3n(-c3ccccc3)c(=O)c21
IC50 [1]: 0.47 µM
IC50 [3]: 2 µM
MLD [4]: 100 mg/kg

Cn1cnc2c3cccnc3n(-c3ccccc3)c(=O)c21
MCT [2]: 543 s
IC50 [1]: 0.22 µM
IC50 [3]: 6.6 µM
MLD [4]: 100 mg/kg

CC(C)n1cnc2c3cccnc3n(-c3ccccc3)c(=O)c21
IC50 [1]: 4.98 µM
IC50 [3]: 2.5 µM
MLD [4]: 200 mg/kg

CC(C)Cn1cnc2c3cccnc3n(-c3ccccc3)c(=O)c21
MCT [2]: 551 s
IC50 [1]: 6.78 µM
IC50 [3]: 0.15 µM
MLD [4]: 300 mg/kg

CCCCn1c(=O)c2ncn(C)c2c2cccnc21
MCT [2]: 335 s
IC50 [1]: 13 µM
MLD [4]: 300 mg/kg

Cc1cccc(-n2c(O)c3ncnc-3c3cccnc32)c1
IC50 [1]: > 30 µM

Cc1ccc(-n2c(O)c3ncnc-3c3cccnc32)cc1
IC50 [1]: > 30 µM

CCOC(=O)c1cccc(-n2c(O)c3ncnc-3c3cccnc32)c1
IC50 [1]: > 30 µM

CCCCn1c(O)c2ncnc-2c2cccnc21
IC50 [1]: > 30 µM

Cc1nc2c(O)n(-c3ccccc3)c3ncccc3c-2n1
IC50 [1]: > 30 µM

COc1ccc(-n2c(O)c3ncnc-3c3cccnc32)cc1
IC50 [1]: > 30 µM

O=C(O)Cn1cnc2c3cccnc3n(-c3ccccc3)c(=O)c21
IC50 [1]: > 30 µM

CCCCCCn1cnc2c3cccnc3n(-c3ccccc3)c(=O)c21
IC50 [1]: > 30 µM

CC(C)n1cnc2c(=O)n(-c3ccccc3)c3ncccc3c21
IC50 [1]: > 30 µM

Oc1c2ncnc-2c2cccnc2n1-c1ccccc1
MCT [2]: 457 s
IC50 [1]: 2.18 µM
MLD [4]: > 300 mg/kg
MCT [5]: 397 s
IC50 [6]: 3.04 µM
IC50 [7]: 5.72 µM
MCT [8]: 301 s
MCT [9]: 483 s
MCT [10]: 491 s
MCT [11]: 410 s
IC50 [12]: 12 µM
IC50 [13]: 10.2 µM

CCCn1cnc2c3cccnc3n(-c3ccccc3)c(=O)c21
MCT [2]: 505 s
IC50 [1]: 8.3 µM
IC50 [3]: 0.52 µM
MLD [4]: 200 mg/kg

CCCCn1cnc2c3cccnc3n(-c3ccccc3)c(=O)c21
IC50 [1]: > 30 µM

COc1ccc(C2CNC(=O)C2)cc1OC1CCCC1 (stereo not given) [ROLIPRAM]
IC50 [1]: 0.34 µM

Cn1c(=O)c2nc[nH]c2n(C)c1=O.O [THEOPHYLLINE]
MCT [2]: 343 s
MCT [14]: 389 s
MCT [10]: 414 s
